Test results reported in patent US9867794B2, “Regulation of osteopontin” (Pathologica LLC, priority 2007, dated 2018).
Values joined by “and” are separate entries in the source; they are usually repeats but may differ in a detail not shown here. Identical values can stand only once.

Columns and labels:
SPP1 = experiment: Microarray analysis of mononuclear cells, SPP1; type: cell-based, human; settings: for SPP1 signal +, Average: 10 μM MGBG
Experimental: (§1) Blood samples were obtained from HIV infected patients (N=9) with positive viral load and reduced CD4 counts, and non-HIV infected, healthy controls (N=6). Blood was collected into heparin anticoagulant tubes and mononuclear cells were isolated by Percoll gradient centrifugation. The cells from each sample were split into 2: one-half receives MGBG at concentration of 10 μM and the other half received no treatment. All samples were then cultured overnight in RPMI media with 10% fetal bovine serum at 37° C. under non-adherent conditions. The next day cells were collected by centrifugation, washed one time with PBS, and lysed by resuspension in TRIZOL, and total RNA was prepared according to manufacturer's instructions (Invitrogen, Carlsbad, Calif.). […] The RNA was then amplified for microarray analysis using a 2 cycle amplification protocol according to the manufacturer's instructions (Affymetrix, Santa Clara, Calif.). The amplified RNAs were then hybridized to Human Genome U133 plus 2.0 microarrays (Affymetrix) and expression data was obtained using an Affymetrix scanner and GCOS protocols. Microarray data was analyzed with GeneSpring Microarray Suite. Results were normalized using a set of 100 probe sets determined by the manufacturer to have relatively invariant expression across most cell types.

mononuclear cells = experiment: Microarray analysis, number of probes changed; type: cell-based, human; settings: average signals, MGBG vs untreated samples
Experimental: as §1

IL24 = experiment: Quantitative RT-PCR, unsorted mononuclear cells, IL24; type: cell-based, human
Experimental: (§2) To evaluate the effect of MGBG on gene expression, blood samples were obtained from patients (N=18, 10 HIV-infected and 8 Healthy Controls). Mononuclear cells were isolated via Percoll gradient centrifugation. The cells were split into two tubes, one treated with 10 μM of MGBG and the other non-treated. The cells were then cultured overnight in RPMI media plus 10% fetal bovine serum at 37 C under non-adherent conditions, collected, lysed using Trizol solution, and total RNA prepared according to manufacturer's instructions (Invitrogen, Carlsbad, Calif.).
(§3) Approximately 200 ng of total RNA prepared from each sample was converted to cDNA using the First Strand cDNA Synthesis Kit for RT-PCR [AMV] kit (Roche Applied Diagnostics, Indianapolis, Ind.) according to manufacturer's instructions. Around 5 ng of cDNA sample was then used for PCR performed on a LightCycler (Roche Applied Diagnostics, Indianapolis, Ind.) using the LightCycler FastStart DNA Master SYBR Green I kit. PCR conditions are as follows: 1 cycle of denaturation at 95° C. for 10 minutes, followed by 45 cycles of 95° C. for 10 seconds, 68° C. for 10 seconds, and 72° C. for 16 seconds.
(§4) The sequences of gene-specific primers evaluated are listed below. All samples were also amplified with the human β-actin LightCycler-Primer set (Roche Diagnostics).

ADA = experiment: Quantitative RT-PCR, unsorted mononuclear cells, ADA; type: cell-based, human
Experimental: as §2, §3, §4

Human Osteopontin (OPN) = experiment: Osteopontin ELISA of PBMC cell culture supernatants (CCS); type: cell-based; settings: for average OPN level in CCS: fifth day
Source text: Peripheral Blood Mononuclear Cells (PBMCs) were isolated from patients diagnosed with Amyotrophic Lateral Sclerosis (ALS), Alzheimer's Disease (AD), Human Immunodeficiency Virus (HIV), Breast Cancer, AIDS Dementia, and healthy donors. The heparinised blood was mixed with equal volumes of sterile phosphate-buffered saline (Ca^++, Mg^++ free PBS) and layered over Percoll (Amersham Biosciences, Piscataway, N.J.) at 1.087 g/ml. The cells were centrifuged and the mononuclear cell layer was collected. The PBMCs were cultured in a concentration of 1×10^6 cells/ml in non-adherent conditions in polypropylene tubes containing complete media (RPMI 1640, 10% fetal bovine serum (HyClone, Logan, Utah), 1% Sodium Pyruvate) and incubated in a 5% CO2, 37° C. humidified incubator. The cells were grown in the presence of 0 μM, 0.1 μM, 1 μM, 10 μM, or 100 μM MGBG plus complete media and the cell culture supernatants (CCS) were isolated on the fifth day and frozen at −20° C. until ready to be tested. Human Osteopontin (OPN) levels were measured with the Human Osteopontin ELISA kit (R&D Systems, Inc., Minneapolis, Minn.) according to manufacturer's instructions. The CCS were tested in duplicate and the Magellan v. 4.0 software (Salzburg, Austria) was used to analyze the results. The average OPN levels (ng/ml) in 0 μM, 0.1 μM, 1 μM, 10 μM, and 100 μM MGBG were measured. The results are depicted in FIGS. 3-7 as a graph comparing diseased sample with normal sample. […] The solid lines represent diseased cells and the dashed lines represent normal cells.

PBMCs = experiment: Cell viability of PBMC cultures when CCS were collected; type: cell-based, human; settings: each MGBG concentration (0.1-100 μM), when the CCS were collected
[1] = test system: CD14+ macrophages; CD16+/CD14− cells; experiment: Phenotypic analysis of cells targeted by MGBG; type: cell-based; settings: increasing concentrations of MGBG
Experimental: Additionally, cells being targeted by MGBG were investigated. […] To elucidate the effects of MGBG and OPN on cell motility, migration assays were conducted. MGBG at 10 μM inhibited macrophage Osteopontin production from >200 ng/mL to nondetectable levels while simultaneously inhibiting HeLa cell invasion into a Matrigel matrix.

OPN RNA = experiment: OPN production inhibition assay in un-stimulated PBMC cultures, OPN RNA; type: cell-based; settings: 10 μM, harvested 1, 3 and 6 days
Experimental: 10 μM of each drug was added to un-stimulated PBMC cultures at time=0 and cells were harvested 1,3, and 6 days later for quantitative OPN RNA and protein production analysis.

[2] = 10 μM MGBG overnight, untreated vs treated, negative = fold reduction, individual samples
[3] = 10 μM MGBG, all unsorted samples

**Q.** How did the “SPP1 signal +, Average” value (SPP1; average of HIV samples) turn out when `CC(/C=N/NC(=N)N)=N\NC(=N)N` [MGBG, 1,1′ [methylethanediylidene]dinitrilodiguanidine] was run?
**A.** Its value is 498.

**Q.** What about the “SPP1 signal +, Average” value (SPP1; average of control samples (C6-, M6-177)) of the same compound?
**A.** The value was 633.

**Q.** What about the “SPP1 fold change, ON/MGBG ratio (down-regulation)” value (SPP1; 10 μM, individual donor samples) of the same compound?
**A.** The value was 60.5 fold and 47.8 fold and 11.5 fold and 43.9 fold and 0.7 fold and 7.0 fold and 2.3 fold and 438.8 fold and 1.4 fold and 5.7 fold and 5.9 fold and 68.0 fold and 57.9 fold and 4.2 fold and 1.2 fold.

**Q.** What about the “samples with 2 fold or greater reductions in SPP1 signal” value (SPP1; of the 15 samples evaluated) of the same compound?
**A.** Its value is 12.

**Q.** What about the “SPP1 signal +” value (SPP1; presence of 10 μM MGBG overnight, individual donor samples) of the same compound?
**A.** The value was 1480 and 113 and 34 and 143 and 458 and 53 and 81 and 264 and 232 and 1519 and 1647 and 64 and 22 and 1684 and 487.

**Q.** What about the “probes down-regulated at least 1.5 fold” value (mononuclear cells) of the same compound?
**A.** The value was 489 probes.

**Q.** What about the “probes up-regulated at least 1.5 fold” value (mononuclear cells) of the same compound?
**A.** The value was 382 probes.

**Q.** And the “Fold change IL24 by QRT-PCR” value (IL24; [2])?
**A.** The value was 5.35 fold and 1.20 fold and 1.09 fold and −1.13 fold and 1.12 fold and 11.88 fold and 2.57 fold and 2.55 fold and 2.25 fold and 1.01 fold and −1.17 fold and 1.92 fold and 1.32 fold and 1.79 fold and 2.50 fold and −2.41 fold and −1.48 fold and −1.30 fold.

**Q.** What about the “Fold change IL24, AVERAGE” value (IL24; [3]) of the same compound?
**A.** The value was 1.6 fold.

**Q.** And the “Fold change IL24, MAX” value (IL24; [3])?
**A.** The value was 11.9 fold.

**Q.** And the “Fold change IL24, MIN” value (IL24; [3])?
**A.** Its value is −2.4 fold.

**Q.** And the “IL24 % >2 fold Changed” value (IL24; share of samples, 10 μM MGBG)?
**A.** Its value is 33%.

**Q.** And the “IL24 regulation by MGBG” value (IL24; unsorted samples)?
**A.** Its value is “did not exhibit a consistent pattern of change”.

**Q.** What about the “Fold change ADA by QRT-PCR” value (ADA; [2]) of the same compound?
**A.** The value was 16.80 fold and 4.69 fold and 18.77 fold and 2.33 fold and 13.00 fold and 3.34 fold and 5.90 fold and 10.06 fold and 7.52 fold and 4.23 fold and 7.21 fold and 1.38 fold and −0.73 fold and 6.68 fold and 3.01 fold and 3.76 fold and 1.16 fold and 7.16 fold.

**Q.** And the “Fold change ADA, AVERAGE” value (ADA; [3])?
**A.** Its value is 6.5 fold.

**Q.** And the “Fold change ADA, MAX” value (ADA; [3])?
**A.** The value was 18.8 fold.

**Q.** What about the “Fold change ADA, MIN” value (ADA; [3]) of the same compound?
**A.** The value was −0.7 fold.

**Q.** What about the “ADA % >2 fold Changed” value (ADA; share of samples, 10 μM MGBG) of the same compound?
**A.** Its value is 83%.

**Q.** What about the “ADA regulation by MGBG” value (ADA; upregulated in all but one sample) of the same compound?
**A.** The value was “strongly induced”.

**Q.** And the “average OPN level in CCS” value (Human Osteopontin (OPN); AD PBMCs (n=1), 0.1 μM MGBG)?
**A.** Its value is 0.477 ng/mL.

**Q.** And the “average OPN level in CCS” value (Human Osteopontin (OPN); AD PBMCs (n=1), 1 μM MGBG)?
**A.** The value was 0.201 ng/mL.

**Q.** And the “average OPN level in CCS” value (Human Osteopontin (OPN); AD PBMCs (n=1), 10 μM MGBG)?
**A.** Its value is 0.136 ng/mL.

**Q.** What about the “average OPN level in CCS” value (Human Osteopontin (OPN); AD PBMCs (n=1), 100 μM MGBG) of the same compound?
**A.** Its value is 0 ng/mL.

**Q.** What about the “average CCS OPN value” (Human Osteopontin (OPN); AIDS Dementia PBMCs (AIRL2005-374), 10 μM MGBG) of the same compound?
**A.** Its value is 0.8905.

**Q.** And the “average CCS OPN value” (Human Osteopontin (OPN); ALS PBMCs (n=2), 10 μM MGBG)?
**A.** The value was 17.669.

**Q.** What about the “average OPN level in CCS” value (Human Osteopontin (OPN); HIV PBMCs (n=2), 0.1 μM MGBG) of the same compound?
**A.** The value was 11.833 ng/mL.

**Q.** What about the “average OPN level in CCS” value (Human Osteopontin (OPN); HIV PBMCs (n=2), 1 μM MGBG) of the same compound?
**A.** Its value is 3.481 ng/mL.

**Q.** What about the “average OPN level in CCS” value (Human Osteopontin (OPN); HIV PBMCs (n=2), 10 μM MGBG) of the same compound?
**A.** Its value is 0.447 ng/mL.

**Q.** What about the “average OPN level in CCS” value (Human Osteopontin (OPN); HIV PBMCs (n=2), 100 μM MGBG) of the same compound?
**A.** Its value is 0 ng/mL.

**Q.** What about the “average OPN level in CCS” value (Human Osteopontin (OPN); breast cancer PBMCs (n=3), 0.1 μM MGBG) of the same compound?
**A.** The value was 20.89 ng/mL.

**Q.** And the “average OPN level in CCS” value (Human Osteopontin (OPN); breast cancer PBMCs (n=3), 1 μM MGBG)?
**A.** The value was 8.87 ng/mL.

**Q.** And the “average OPN level in CCS” value (Human Osteopontin (OPN); breast cancer PBMCs (n=3), 10 μM MGBG)?
**A.** The value was 2.12 ng/mL.

**Q.** What about the “average OPN level in CCS” value (Human Osteopontin (OPN); breast cancer PBMCs (n=3), 100 μM MGBG) of the same compound?
**A.** The value was 0.84 ng/mL.

**Q.** And the “average OPN level in CCS” value (Human Osteopontin (OPN); healthy/normal PBMCs (n=3), 0.1 μM MGBG)?
**A.** Its value is 9.69 ng/mL.

**Q.** And the “average OPN level in CCS” value (Human Osteopontin (OPN); healthy/normal PBMCs (n=3), 1 μM MGBG)?
**A.** Its value is 4.85 ng/mL.

**Q.** What about the “average OPN level in CCS” value (Human Osteopontin (OPN); healthy/normal PBMCs (n=3), 10 μM MGBG) of the same compound?
**A.** Its value is 1.07 ng/mL.

**Q.** What about the “average OPN level in CCS” value (Human Osteopontin (OPN); healthy/normal PBMCs (n=3), 100 μM MGBG) of the same compound?
**A.** The value was 0.14 ng/mL.

**Q.** What about the cell viability (PBMCs) of the same compound?
**A.** The cell viability was “at least 75%”.

**Q.** What about the “levels of CD16+/CD14− cells” value [1] of the same compound?
**A.** The value was “did not affect”.

**Q.** And the “yields of CD14+ macrophages” value [1]?
**A.** Its value is “decreasing yields”.

**Q.** What about the “OPN RNA expression” value (OPN RNA) of the same compound?
**A.** The value was “inhibited in a time dependant manner”.
